Tested on: NCI-H716 cells
Assay: In vitro GLP-1 secretion-accelerating action (active GLP-1 ELISA)
Type: cell-based
Conditions: for Significant difference (p < 0.05) vs control group, amount of active GLP-1 secreted: 1 hour, Student's t-test; for Amount of active GLP-1 secreted (relative value to control group as 100), Average value: after 1 hour, group with no cyclic dipeptide = 100
Procedure: In the Test Examples below, data were represented as average value±standard error. In Test Examples 1, 2, and 3, a Student's t-test was used for a statistical test, and in other Test Examples, one-way ANOVA was carried out for dispersion analysis followed by a multiple comparison test by using a Dunnet's test. […] All of these analyses were carried out by using an SPSS for Windows release 17.0 (manufactured by SPSS Inc.).
Among the cyclic dipeptides, 92 highly water-soluble cyclic dipeptides were used in the following experiment. In each well of a Poly-L-Lysine 96-well plate, NCI-H716 cells suspended in 100 μL of a DMEM (with 10% FBS, 2 mM glutamine, and 1% antibiotics added in advance) were seeded at 0.5×10^5 cells/well, and cultured in a CO2 incubator (manufactured by ESPEC CORP.) for 48 hours. After washing with PBS(+), 100 μL of a PBS(+) solution with each cyclic dipeptide at a final concentration of 10 mM and 10 μM of Sitagliptin phosphate added therein was added to the cells. After 1 hour, the resultant solution was recovered, and the amount of active GLP-1 in the solution was measured by using the ELISA kit. In the analysis, the amount of active GLP-1 for a group with no cyclic dipeptide added was defined as 100, and relative values thereto were used.
In each Table, cyclic dipeptides for which an in vitro active GLP-1 secretion-accelerating activity was found and was not found are listed.

[1] = Experiment 5, cyclic dipeptide 10 mM with 10 μM Sitagliptin phosphate
[2] = Experiment 1, cyclic dipeptide 10 mM with 10 μM Sitagliptin phosphate
[3] = Experiment 2, cyclic dipeptide 10 mM with 10 μM Sitagliptin phosphate
[4] = Experiment 3, cyclic dipeptide 10 mM with 10 μM Sitagliptin phosphate
[5] = Experiment 4, cyclic dipeptide 10 mM with 10 μM Sitagliptin phosphate

Structure (SMILES) | Significant difference (p < 0.05) vs control group, amount of active GLP-1 secreted (Experiment 3, 10 mM) | Amount of active GLP-1 secreted (relative value to control group as 100), Average value [4] | other results
O=C1NCC(=O)N2CCCC12 (stereo not shown) [compound 4] | – | – | Significant difference (p < 0.05) vs control group, amount of active GLP-1 secreted (Experiment 5, 10 mM): Yes; Amount of active GLP-1 secreted (relative value to control group as 100), Average value [1]: 157
CC(C)CC1NC(=O)CNC1=O (stereo not shown) [compound 21] | – | – | Significant difference (p < 0.05) vs control group, amount of active GLP-1 secreted (Experiment 5, 10 mM): No; Amount of active GLP-1 secreted (relative value to control group as 100), Average value [1]: 131
O=C(O)CCC1NC(=O)CNC1=O (stereo not shown) [compound 24] | – | – | Significant difference (p < 0.05) vs control group, amount of active GLP-1 secreted (Experiment 5, 10 mM): No; Amount of active GLP-1 secreted (relative value to control group as 100), Average value [1]: 89
O=C1CNC(=O)C(Cc2c[nH]cn2)N1 (stereo not shown) [compound 27] | – | – | Significant difference (p < 0.05) vs control group, amount of active GLP-1 secreted (Experiment 5, 10 mM): No; Amount of active GLP-1 secreted (relative value to control group as 100), Average value [1]: 82
O=C(O)CC1NC(=O)CNC1=O (stereo not shown) [compound 32] | – | – | Significant difference (p < 0.05) vs control group, amount of active GLP-1 secreted (Experiment 5, 10 mM): Yes; Amount of active GLP-1 secreted (relative value to control group as 100), Average value [1]: 12
NC(=O)CCC1NC(=O)CNC1=O (stereo not shown) [compound 36] | – | – | Significant difference (p < 0.05) vs control group, amount of active GLP-1 secreted (Experiment 5, 10 mM): No; Amount of active GLP-1 secreted (relative value to control group as 100), Average value [1]: 75
NCCCC[C@@H]1NC(=O)[C@H](CCCCN)NC1=O [compound 40] | – | – | Significant difference (p < 0.05) vs control group, amount of active GLP-1 secreted (Experiment 1, 10 mM): No; Amount of active GLP-1 secreted (relative value to control group as 100), Average value [2]: 164
O=C(O)CC[C@@H]1NC(=O)[C@@H]2CCCN2C1=O [compound 45] | – | – | Significant difference (p < 0.05) vs control group, amount of active GLP-1 secreted (Experiment 1, 10 mM): No; Amount of active GLP-1 secreted (relative value to control group as 100), Average value [2]: 145
O=C1N[C@@H](CO)C(=O)N2CCC[C@@H]12 [compound 46] | – | – | Significant difference (p < 0.05) vs control group, amount of active GLP-1 secreted (Experiment 2, 10 mM): No; Amount of active GLP-1 secreted (relative value to control group as 100), Average value [3]: 139
NC(=O)CC[C@@H]1NC(=O)[C@H](Cc2ccccc2)NC1=O [compound 65] | – | – | Significant difference (p < 0.05) vs control group, amount of active GLP-1 secreted (Experiment 2, 10 mM): Yes; Amount of active GLP-1 secreted (relative value to control group as 100), Average value [3]: 227
CC(C)C[C@@H]1NC(=O)[C@H](CCCCN)NC1=O [compound 68] | – | – | Significant difference (p < 0.05) vs control group, amount of active GLP-1 secreted (Experiment 2, 10 mM): No; Amount of active GLP-1 secreted (relative value to control group as 100), Average value [3]: 208
O=C1N[C@@H](Cc2c[nH]c3ccccc23)C(=O)N[C@H]1CO [compound 78] | – | – | Significant difference (p < 0.05) vs control group, amount of active GLP-1 secreted (Experiment 2, 10 mM): No; Amount of active GLP-1 secreted (relative value to control group as 100), Average value [3]: 119
NCCCC[C@@H]1NC(=O)CNC1=O [compound 96] | Yes | 133 | –
NCCCCC1NC(=O)C(CCC(=O)O)NC1=O (stereo not shown) [compound 97] | No | 66 | –
NCCCCC1NC(=O)C(CO)NC1=O (stereo not shown) [compound 98] | Yes | 71 | –
CC(C)C1NC(=O)C(CCCCN)NC1=O (stereo not shown) [compound 99] | Yes | 532 | –
NCCCCC1NC(=O)C(CC(N)=O)NC1=O (stereo not shown) [compound 101] | Yes | 250 | –
NCCCCC1NC(=O)C(CCC(N)=O)NC1=O (stereo not shown) [compound 102] | No | 112 | –
NC(=O)CC1NC(=O)C(Cc2cnc[nH]2)NC1=O (stereo not shown) [compound 111] | Yes | 341 | –
N=C(N)NCCCC1NC(=O)C(Cc2cnc[nH]2)NC1=O (stereo not shown) [compound 112] | No | 106 | –

Structure (SMILES) | Significant difference (p < 0.05) vs control group, amount of active GLP-1 secreted (Experiment 3, 10 mM) | Amount of active GLP-1 secreted (relative value to control group as 100), Average value [4] | other results
CC1NC(=O)C(CCC(=O)O)NC1=O (stereo not shown) [compound 113] | No | 157 | –
N=C(N)NCCCC1NC(=O)CNC1=O (stereo not shown) [compound 117] | No | 98 | –
CC1NC(=O)C(CC(N)=O)NC1=O (stereo not shown) [compound 124] | No | 116 | –
NC(=O)CCC1NC(=O)CNC1=O (stereo not shown) [compound 126] | Yes | 210 | –
NC(=O)CC1NC(=O)C(CCC(=O)O)NC1=O (stereo not shown) [compound 129] | No | 118 | –
NC(=O)CCC1NC(=O)C(CCC(=O)O)NC1=O (stereo not shown) [compound 130] | No | 120 | –
NC(=O)CCC1NC(=O)C(CO)NC1=O (stereo not shown) [compound 136] | No | 251 | –
CC1NC(=O)C(CC(=O)O)NC1=O (stereo not shown) [compound 153] | No | 94 | –
O=C1CNC(=O)C(CO)N1 (stereo not shown) [compound 154] | No | 116 | –
N=C(N)NCCCC1NC(=O)C(CO)NC1=O (stereo not shown) [compound 159] | Yes | 135 | –
CC(O)C1NC(=O)C(CC(=O)O)NC1=O (stereo not shown) [compound 165] | No | 140 | –
CC(O)C1NC(=O)C(CC(N)=O)NC1=O (stereo not shown) [compound 166] | No | 149 | –
CC(O)C1NC(=O)C(CCC(N)=O)NC1=O (stereo not shown) [compound 167] | No | 156 | –
CC(O)C1NC(=O)C(CCCNC(=N)N)NC1=O (stereo not shown) [compound 168] | No | 142 | –
NC(=O)CC1NC(=O)C(CC(=O)O)NC1=O (stereo not shown) [compound 170] | No | 125 | –
CSCCC1NC(=O)C(CCC(N)=O)NC1=O (stereo not shown) [compound 186] | – | – | Significant difference (p < 0.05) vs control group, amount of active GLP-1 secreted (Experiment 4, 10 mM): Yes; Amount of active GLP-1 secreted (relative value to control group as 100), Average value [5]: 191
N=C(N)NCCCC1NC(=O)C(Cc2c[nH]c3ccccc23)NC1=O (stereo not shown) [compound 189] | – | – | Significant difference (p < 0.05) vs control group, amount of active GLP-1 secreted (Experiment 4, 10 mM): Yes; Amount of active GLP-1 secreted (relative value to control group as 100), Average value [5]: 314
O=C(O)CCC1NC(=O)C(CO)NC1=O (stereo not shown) [compound 192] | – | – | Amount of active GLP-1 secreted (relative value to control group as 100), Average value [5]: 993
N=C(N)NCCCC1NC(=O)C(CC(N)=O)NC1=O (stereo not shown) [compound 197] | – | – | Significant difference (p < 0.05) vs control group, amount of active GLP-1 secreted (Experiment 4, 10 mM): Yes; Amount of active GLP-1 secreted (relative value to control group as 100), Average value [5]: 359
N=C(N)NCCCC1NC(=O)C(CCCNC(=N)N)NC1=O (stereo not shown) [compound 212] | – | – | Significant difference (p < 0.05) vs control group, amount of active GLP-1 secreted (Experiment 4, 10 mM): Yes; Amount of active GLP-1 secreted (relative value to control group as 100), Average value [5]: 1050

Source: patent publication US20170114030A1, “COMPOSITION WITH HIGH CONTENT OF CYCLIC DIPEPTIDE” (SUNTORY HOLDINGS LIMITED, priority 2014, published 2017)
